Consider two compounds from patent US20050192262A1, “Treatment of tumours” (priority 2001, published 2005).

Assay [1] has as its target T1, PPARγ (Mus musculus, UniProt P37238).
T1 construct: made in house; host or cells: E. coli strain Y 1090 (GST-PPARγ); TNT Coupled Reticulocyte Lysate System, Promega (SRC-1)
Kind of assay: Ligand-induced coactivator interaction assay (GST-PPARγ / SRC-1). To be noted: for PPARγ-ligand activity of the steroid per se: 10 and 100 μM solutions, no liver cytosol; for band in coactivator assay, steroid incubated with liver cytosol: liver cytosol alone gives weak bands, no PAPS. It counts as biochemical. The method, then:
ApcDNA3-SRC-1 construct was used as template to prepare (^35S-methionine)-SRC-1 by in vitro transcription and translation using the TNT® Coupled Reticulocyte Lysate System (Promega).
Ligand-induced interactions between GST-PPARγ and SRC-1: To generate GST-PPARγ fusion protein, mouse PPARγcDNA was inserted into the NcoI-HindIII sites of pGEX-KG, and protein was then expressed in E. coli, strain Y 1090. The bacteria were lysed by sonication in TEDG buffer (50 mM Tris (pH 7.4), 1.5 mM EDTA, 10% glycerol, 0.4 M NaCl, 0.1 mM DTT) containing the following protease inhibitors: 0.5 mM PMSF, 1 mM benzamidine, 10 μg/ml leupeptin, 10 μg/ml antipain and […] aprotinin. The lysates were centrifuged at 100,000×g for 60 min in a SW 41 rotor using a Beckman L8-70 M ultracentrifuge. The fusion protein was immobilized on GSH Sepharose beads (Pharmacia) and then incubated with potential ligands in (FIG. 5) 10 mM Tris (pH7.4), 0.12 M KCl, 8% glycerol, 4 mM DTT, and 0.5% CHAPS (buffer AA) for 30 min at room temperature. Thereafter, (^35S methionine) SRC-1 (ca 0.1 μCi) was added, and the beads were incubated for another hour at 4° C. and then washed extensively with buffer A. SDS sample buffer was added to the beads, and the samples boiled prior to separation on 7.5% SDS-PAGE. Radioactivity was detected by autoradiography.
α- and β-AED were investigated in above assay for PPARγ ligand activity in 10 and 100 μM solutions in ethanol 10%, in distilled water. 10 μL aliquots of α-AED-solution or β-AED-solution were also added to a preparation of a male rat liver cytosolic preparation prepared as follows:
A homogenate of a rat liver, a known source of steroid sulphotransferase activity, was prepared using a food processor. The liver homogenate was protected from serine-proteases by the addition of 2 mmol of PMSF, 1 mmol of EDTA and 10 mmol Tris-HCl buffered to a pH of 7.40. The homogenate was prepared at 4° C. and then centrifuged at 15000 g for 10 minutes, followed by centrifugation at 100000 g for an hour at 4° C. The supernatant was divided into test tubes containing one of the following steroids: 17β-AED or 17α-AED in 5 μM concentration together with 100 μL of liver cytosol. One test tube served as positive control and contained SCR-1.
In a second experiment the following steroids were tested for activity: 17α-AED, 17OH-pregnenolone and 5-androstene-3β,7β,17α-triol with and without 10 μL of […] (PAPS), Sigma Chemicals, corresponding to 0.1 mg of PAPS. One test tube served as a positive control and contained SRC-1 Instead of steroid. One test tube contained liver cytosol where the steroid sulphotransferase was inactivated by heating to 45° C. for 30 minutes. Tubes were stirred at 20° C. for 1 hour and the contents were investigated in the receptor-coactivator assay for ligand activity (FIG. 5).
17α-AED was treated in the method described by Arnostova, Libuse M.; Pouzar, Vladimir; Drasar, Pavel. Inst. Org. Chem. Biochem., Czech. Acad. Sci., Prague, Czech. Synth. Commun. (1990), 20(10), 1521-9, where acetate is used as protection group and pyridine —SO3 complex as the sulfating agent. Deprotection with an excess of 0.8M NaOH in MeOH-water provides the desired hydroxy sulfate, which is investigated, for PPARγ-activity in the ligand-activated-coactivator receptor assay described above.

Assay [2] concerns DU-145. Kind of assay: Caspase apoptosis assay (Ac-DEVD-AMC fluorescence). It counts as cell-based, human. The note with it: 96 hours; for Mean fluorescence DU-145 samples/100 cells n = 3 / Mean fluorescence DU-145 samples n = 3: 100 nM, mean (range); for Mean fluorescence DU-145 samples/100 cells n = 3: corrected for cell number. The method, then: Exposure was maintained for 96 hours and cells in culture flasks were then treated with 5 ml of trypsin (0.25%) for PC-3 and trypsin and 3 ml of Versene (0.2 mM) for DU-145. Cells were then mechanically loosened, using a glass spatula. 100 μL aliquots were removed for Trypan blue exclusion trial. 200 μL aliquots were removed for cytospin preparations. The remaining 700 μL samples were then centrifuged for 5 minutes at 510×g at 4° C. Supernatant was removed and cells were resuspended in medium in 1 ml of insect cell lysis buffer (Pharmingen # 21425A) and incubated for 30 minutes on ice. The cell lysates were then stored at −70° C. until analysis.
Aliquots of a 100 μL of cell lysate were removed for the caspase assay. Each portion was mixed with 1 ml protease assay buffer and Ac-DEVD-AMC substrate (Pharmingen # 66081U) with a final concentration of 20 μM. Solutions were incubated for 60 minutes at 37° C.
To determine background fluorescence a control was prepared, containing no cell lysate but the same amounts of protease assay buffer, lysis buffer and Ac-DEVD-AMC substrate.
Fluorescence was measured using a spectrofluorometer (RF 540, Shimadzu Data Recorder DR3, Instrument AB, Lambda) at 415-450 nm with an excitation wavelength of 380 nm.

The test system of assay [3] is COX-2. To be noted: Animals I; controls set to 100; mean (range); α-AED 10 mg 96 hours, β-AED 80 mg 456 hours, α+β sequential. The protocol: (§1) The animal experiment described above was repeated.
(§2) Thawed rat tumours from both experiments above were homogenized in ice cold lysis-buffer. (160 mM NaCl, 10 mM HEPES, 2 mM CaCl2, 5% SDS, 0.5% Triton X-100, 100 μg/ml phenyl-metylsulfonyl fluoride, 1 μg/ml leupeptin and 2 μg/ml aprotinin), placed on ice for 15 minutes and following clarification centrifuged for 10 minutes at 13,000 g. Protein content of homogenates were determined by Lowry assay.
(§3) Protein in lysates (90 μg) were separated by electrophoresis using 8% SDS-PAGE and separated proteins were transferred onto a nitrocellulose membrane (Amersham) in trans-blot electrophoretic transfer cell (Bio-Rad Laboratories).
(§4) After washing in TTBS the blots were reincubated with horseradish peroxidase conjugated secondary antibody (anti-goat antibodies 2020, Santa Cruz) diluted 1:4000 in TTBS containing 3% (w/v) non-fat, dried milk for one hour. Blots were developed using an enhanced chemiluminescence system (ECL, Amersham) and exposed to Hyperfilm ECL (Amersham). Optical density was measured densitometrically.
(§5) The blots were striped and rehybridized with antibodies against β-catenin (C-18, sc. 1496) and COX-2 (C-20, sc 1745) antibodies.
(§6) In the second animal experiment tumours were investigated for expression of β-catenin, COX-2 and cyclin D1 (A-12, sc. 8396).

The subject of assay [4] is β-catenin. The experiment in a line: Western blotting of Dunning AT-1 rat prostate tumours. Format: in vivo. To be noted: for β-catenin expression, optical density: Animals I, controls set to 100, mean (range), α-AED 10 mg 96 hours, β-AED 80 mg 456 hours, α+β sequential; for expression of β-catenin: Animals II, exposure 80 hours in all arms. The protocol: as §1, §2, §3, §4, §5, §6

T1 sequence (P37238 whole entry): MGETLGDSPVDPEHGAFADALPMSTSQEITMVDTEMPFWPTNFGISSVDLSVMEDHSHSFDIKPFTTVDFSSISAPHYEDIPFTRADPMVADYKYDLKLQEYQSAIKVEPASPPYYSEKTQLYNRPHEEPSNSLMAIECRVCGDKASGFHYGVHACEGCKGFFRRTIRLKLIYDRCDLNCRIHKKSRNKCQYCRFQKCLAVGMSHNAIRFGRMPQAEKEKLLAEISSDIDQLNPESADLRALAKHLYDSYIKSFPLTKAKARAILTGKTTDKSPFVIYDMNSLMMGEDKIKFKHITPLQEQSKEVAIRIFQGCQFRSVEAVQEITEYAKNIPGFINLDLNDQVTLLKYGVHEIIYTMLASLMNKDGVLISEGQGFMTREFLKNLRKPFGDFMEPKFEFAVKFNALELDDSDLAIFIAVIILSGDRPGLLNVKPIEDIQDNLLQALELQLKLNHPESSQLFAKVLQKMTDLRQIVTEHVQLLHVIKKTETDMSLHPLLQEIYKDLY
T1 sequence (Q15788 whole entry partner): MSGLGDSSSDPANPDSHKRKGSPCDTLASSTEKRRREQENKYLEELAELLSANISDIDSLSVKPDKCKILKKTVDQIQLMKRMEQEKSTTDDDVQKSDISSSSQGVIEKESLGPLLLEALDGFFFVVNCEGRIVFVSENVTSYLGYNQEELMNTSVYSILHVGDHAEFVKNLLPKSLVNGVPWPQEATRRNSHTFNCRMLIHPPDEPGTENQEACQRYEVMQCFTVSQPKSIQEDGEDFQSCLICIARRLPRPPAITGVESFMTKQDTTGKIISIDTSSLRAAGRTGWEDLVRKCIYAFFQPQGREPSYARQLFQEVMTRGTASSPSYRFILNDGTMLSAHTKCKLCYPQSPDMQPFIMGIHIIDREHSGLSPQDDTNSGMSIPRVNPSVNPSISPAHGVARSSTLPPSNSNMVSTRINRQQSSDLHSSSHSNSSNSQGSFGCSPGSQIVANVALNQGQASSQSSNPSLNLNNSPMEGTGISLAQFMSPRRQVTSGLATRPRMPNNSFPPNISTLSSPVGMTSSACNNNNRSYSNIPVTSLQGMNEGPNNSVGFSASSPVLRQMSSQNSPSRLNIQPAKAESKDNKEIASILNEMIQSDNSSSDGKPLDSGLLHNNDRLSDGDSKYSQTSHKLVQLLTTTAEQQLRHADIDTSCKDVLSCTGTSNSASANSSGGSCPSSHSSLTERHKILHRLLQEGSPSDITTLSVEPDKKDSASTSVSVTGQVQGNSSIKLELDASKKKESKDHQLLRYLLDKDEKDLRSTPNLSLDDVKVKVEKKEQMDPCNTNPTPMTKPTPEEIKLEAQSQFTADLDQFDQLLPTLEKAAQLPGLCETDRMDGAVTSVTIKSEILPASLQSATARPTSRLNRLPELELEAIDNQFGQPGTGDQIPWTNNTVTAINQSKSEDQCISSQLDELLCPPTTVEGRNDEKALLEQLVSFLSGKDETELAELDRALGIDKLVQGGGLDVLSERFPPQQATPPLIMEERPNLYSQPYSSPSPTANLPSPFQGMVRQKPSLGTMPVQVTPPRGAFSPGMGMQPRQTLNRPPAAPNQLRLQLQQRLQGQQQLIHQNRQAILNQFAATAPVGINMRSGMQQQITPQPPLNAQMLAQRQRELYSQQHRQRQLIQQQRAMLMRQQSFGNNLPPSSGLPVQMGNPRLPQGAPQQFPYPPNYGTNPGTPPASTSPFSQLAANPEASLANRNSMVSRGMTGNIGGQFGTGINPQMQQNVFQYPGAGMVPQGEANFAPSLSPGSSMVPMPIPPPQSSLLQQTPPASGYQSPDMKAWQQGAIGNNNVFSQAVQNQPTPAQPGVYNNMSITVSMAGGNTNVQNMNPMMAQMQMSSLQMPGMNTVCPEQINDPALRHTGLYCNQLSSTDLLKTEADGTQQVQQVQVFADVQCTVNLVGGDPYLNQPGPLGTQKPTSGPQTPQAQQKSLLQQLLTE

Consider `C[C@]12CC[C@H]3[C@@H](CC=C4C[C@@H](O)CC[C@@]43C)[C@@H]1CC[C@H]2O` [Compound 17α-AED, androstene-3β,17α-diol], for which, in assay [1], the “PPARγ-ligand activity of the steroid per se” value is “No sign of transcription pointing to a ligand activity” and the “band in coactivator assay, steroid incubated with liver cytosol” value was “band was extinguished”. Besides, in assay [1] (second experiment, active liver cytosol, sulfate formed in situ), the “PPARγ-ligand activity, steroid + liver cytosol + PAPS” value is reported as “significant difference in signal”. Moreover, the “PPARγ-ligand activity, native steroid + liver cytosol” value in assay [1] (second experiment, without PAPS) is on record as “insignificant responses”. Besides, in assay [2], the “Mean fluorescence DU-145 samples/100 cells n = 3” value is reported as 14.2((10.9-20.3) and the “Mean fluorescence DU-145 samples n = 3” value is reported as 18.4(13.2-25.2). Also, the “caspase-3 or caspase-7 fluorescence compared to 17β-AED or controls” value in assay [2] (DU-145, 100 nM) was “significant decline”. Moreover, the “COX-2 expression, optical density” value in assay [3] was 219(192-234). Also, in assay [4], the “β-catenin expression, optical density” value is listed as 20(15-30) and the “expression of β-catenin” value was “marked decrease”.

Consider `C[C@]12CC[C@H]3[C@@H](CC=C4C[C@@H](O)CC[C@@]43C)[C@@H]1CC[C@@H]2O` [Compound 17β-AED, reference compound], for which, in assay [1], the “PPARγ-ligand activity of the steroid per se” value is reported as “No sign of transcription pointing to a ligand activity” and the “band in coactivator assay, steroid incubated with liver cytosol” value is listed as “identical result”. Also, in assay [2], the “Mean fluorescence DU-145 samples/100 cells n = 3” value was 35.1(25.6-50.3) and the “Mean fluorescence DU-145 samples n = 3” value is listed as 42.9(32.0-58.8). For the same compound, the “COX-2 expression, optical density” value in assay [3] is recorded as 135(133-137). In addition, in assay [4], the “β-catenin expression, optical density” value is reported as 14(10-22) and the “expression of β-catenin” value is listed as “did not reduce”.
